In patent US20240108753A1, “NUCLEIC ACID DELIVERY” (NUNTIUS THERAPEUTICS LIMITED, priority 2021, published 2024):

Experiments:
HeLa cells [1] = test: DNA (pCl-Luc luciferase plasmid) transfection with peptide dendrimer and lipid; format: cell-based, human; settings: 0.25 μg pCl-Luc
Protocol: Cell Lines, transfection reagents and plasmids. HeLa cells were maintained in RPMI medium with 10% (v/v) FCS and 1% (v/v) P/S in a humidified atmosphere in 5% CO2 and 37° C. The plasmid pCl-Luc was derived from plasmid pCl (Promega, Southampton, UK) with the luciferase gene inserted. Branched PEI (25 kDa) was purchased from Sigma-Aldrich. Lipofectamine 2000 (L2000) and Lipofectin (DOTMA:DOPE, 1:1 (w/w)) were obtained from Invitrogen. PEI, L2000 and lipofectin were used as positive control transfection agents in accordance with the manufacturer's instructions.
Transfection procedure. 24 hours before transfection, HeLa cells were seeded (10,000 cells in 100 μL/well) in 96 well plates in order to reach 70% confluence. Plasmid transfection complexes were formed by mixing the dendrimers (100 μL, from 60 μg to 105 μg, dependent on N/P ratios) with lipofectin (4 μg; 100 μL). These mixtures were incubated with a pCl-Luc (4 μg; 100 μL) at different N/P ratios in OptiMEM for 30 min at 25° C. Transfection control complexes (PEI, Lipofectin or L2000) (total 100 μL in OptiMEM) were mixed with pCl-Luc (4 μg; 100 μL) at the respective manufacturers' recommended concentrations. For transfection in serum-free medium, before overlaying the DNA complexes on the cells, OptiMEM was added to dilute the complexes, so that each complex contained 0.25 μg DNA in a total volume of 100 μL in one well of a 96 well plate. For transfection in serum medium, before overlaying the DNA complexes on the cells, full growth medium was added to dilute the complexes, so that each complex contained 0.25 μg DNA in a total volume of 100 μL in one well of a 96 well plate. After removing complete media from the cells, the complexes were added to the plates. The plates were incubated for 4 hours at 37° C. Then, the transfection solutions were replaced by full growth media for 24 hours before luciferase activity was assayed.
Transgene expression assay. The cells were washed twice with PBS and incubated with reporter lysis buffer (20 μL, Promega) for 20 min at 4° C., then overnight at −80° C. After the cells were defrosted at room temperature, luciferase assay buffer (100 μL, Promega; prepared according to the manufacturer's protocol) was added to each well. The luminescent product was measured by Relative Light Units (RLU) in a FLUOstar Optima luminometer (BMG Labtech).
Protein content determination. The protein content of each cell lysate was determined by mixing the lysate (20 μL) with Bio-Rad Protein Assay Reagent (180 μL, Bio-Rad, Hemel Hempstead, UK). After incubation of 10 min, the absorbance at 590 nm was measured and converted to protein concentration using a BSA standard curve. RLU per mg of protein represented luciferase activity. The ratio of these two values is the activity per protein unit (in RLU/mg).

Neuro2A cells = test: as above; format: cell-based, mouse; settings: 0.25 μg pCl-Luc
[2] = Hydrodynamic size, polydispersity index and zeta potential of dendrimer, lipid and mRNA complexes; format: physicochemical; settings: DOTMA/DOPE w/w 10:1 to mRNA; for Hydrodynamic size: dendrimer, lipid and mRNA complexes
Protocol: The hydrodynamic size, polydispersity index and Zeta potential was determined for a set of the dendrimers disclosed in Tables 1 and 2.

HeLa cells [3] = test: mRNA (eGFP) transfection with peptide dendrimers and DOTMA/DOPE in full growth medium; format: cell-based, human; settings: for mRNA transfection efficiency (eGFP), in words: HeLa, full growth medium, DOTMA/DOPE w/w 10:1 to mRNA, relative to G1,2-RL, 3-LR
Protocol: FIG. 28. mRNA transfection of the peptide dendrimers with lipid system in vitro. […] The mRNA used expressed an eGFP reporter gene. Following a 24 hour transfection, the cells were harvested to assay the eGFP expression. The eGFP expression was normalised with the total amount of protein of each transfection. The gene expression level was calculated by normalising the transfection value of the G1,2-RL, 3-LR, DOTMA/DOPE & mRNA treated cells. 1st, 2nd and 3rd generation dendrimers with varying cores and 1st, 2nd, and 3rd generation peptide motifs can transfect cells with mRNA effectively under the tested conditions.
FIG. 29. mRNA transfection of the peptide dendrimers with lipid system in vitro. HeLa cells were transfected with mRNA alone or mRNA with peptide dendrimers and DOTMA/DOPE (w/w=10:1 to mRNA). The N:P ratio of G1,2-RL,3-LR was at 0.16:1 while the N:P ratios of all other dendrimers at 8:1. The mRNA used expressed an eGFP reporter gene. Following a 24 hour transfection, the cells were harvested to assay the eGFP expression. The eGFP expression was normalised with the total amount of protein of each transfection. The gene expression level was calculated by normalising the transfection value of the G1,2-RL, 3-LR, DOTMA/DOPE & mRNA treated cells. 1st, 2nd and 3rd generation dendrimers with varying cores and 1st, 2nd, and 3rd generation peptide motifs can transfect cells with mRNA effectively under the tested conditions.
The effect on the number of generations of dendrimers on mRNA delivery was studied by transfecting HeLa cells in full growth medium conditions.

mice tissue = test: In vivo luciferase mRNA expression assays; settings: intravenous; N:P 0.15:1 or 8:1; 6 hours
Protocol: Peptide dendrimers were diluted to a respective concentration and mixed with mRNA for a desired NP ratio such as NP=0.15:1 or 8:1. The solution was incubated in room temperature for 10 mins. Lipid such as DOTMA/DOPE was diluted to a respective concentration and mixed with the dendrimer-mRNA complexes for a desired NP ratio such as NP-4.7:1. The solution was incubated in room temperature for 20 mins. When required, the solution would be further diluted before injection.
All animal procedures conducted in our studies complied with UK laws and were inclusive of ethics approval. Female CD-1 mice (n=39) aged 6-8 weeks left to habituate for 1-week upon their arrival. All mice were weighed, and the formulations were delivered intravenously (100 μl) via the tail vein using 30G insulin syringes (BD biosciences).
All mice were imaged 6 hours post injection. BLI was performed using an IVIS Lumina II (Perkin Elmer) Imaging system. Mice were administered D-luciferin (30 mg/mL, XenoLight, Perkin Elmer) at a dose of 150 mg/kg. Mice were anaesthetised 6 mins after receiving D-luciferin in a chamber with 5% isoflurane and then placed on a heated imaging platform while being maintained on 2.5% isoflurane. Mice were imaged 10 min post administration of D-luciferin with an exposure time set to ensure the signal acquired was within an effective detection range (open filter, binning 8, f-stop 1). Bioluminescence signal was quantified by measuring photon flux (photons/s) in the defined region of interest (ROI) using the Living Image software (Perkin Elmer). Following in vivo whole-body imaging, the mice were euthanised, cardiac blood taken, and the tissues extracted for ex vivo imaging. Here each tissue was placed into individual wells of a 24-well imaging plate (black sided, Eppendorf) containing 0.3 mg/mL D-luciferin in PBS). The imaging plate was placed in the centre of imaging platform (Lumina II system) and signal was measured using the acquisition settings detailed above. Finally, the tissues were placed in storage vials and flash frozen in liquid nitrogen.
Mice were injected with a composition comprising DOTMA/DOPE, mRNA encoding luciferase and either G1,2,3-RL, (FIG. 10, top panel; the “G1,2,3-RL, lipid and mRNA formulation”) or G1,2-RL,3-LR (FIG. 10, bottom panel: the “G1,2,3-RL, lipid and mRNA formulation”). Each formulation was prepared and injected at an NP ratio of 8:1 and 0.15:1. Mice were prepared for detection of luciferase expression post injection.

Polydispersity Index (PDI) ([2]; N:P 0.16:1)	Zeta Potential ([2]; N:P 0.16:1) [mV]	Polydispersity Index (PDI) ([2]; N:P 8:1)	Zeta Potential ([2]; N:P 8:1) [mV]	Hydrodynamic size ([2]; N:P 0.16:1) [nm]	Hydrodynamic size ([2]; N:P 8:1) [nm]	Substance	DNA transfection efficiency (luciferase, normalised to D/D), in words (HeLa cells [1])	DNA transfection efficiency (luciferase, normalised to D/D), in words (Neuro2A cells)	mRNA transfection efficiency as share of the improved formulation (DOTMA/DOPE w/w=10:1, N:P=0.16:1) (HeLa cells [3]; DOTMA/DOPE w/w=2:1 to mRNA and N:P=20:1) [%]	mRNA transfection efficiency (eGFP), in words (HeLa cells [3])	targeting mRNA delivery to the spleen and lung compared to G1,2-RL, 3-LR (mice tissue)
						(RL)4(KRL)2KGSC-NH2 [G1,2-RL]	higher transfection efficiency	higher transfection efficiency			
0.124	41	0.087	47	135	213	(RR)4(KLL)2KGSC-NH2 [G1-LL, 2-RR]			10	can be used to deliver mRNA	
						(K)8(KK)4(KK)2KGSC-NH2 [G1,2,3-K]	not as effective as G1,2,3-KL	not as effective as G1,2,3-KL			
0.114	37	0.252	49	123	172	(R)4(KR)2KRHC-NH2 [RHCG1,2-R]				can transfect cells effectively	
0.143	42	0.289	54	118	62	(LR)8(KRL)4(KRL)2KGSCRHCRFWRYM-NH2 [LinearG1,2-RL, 3-LR]				transfection efficiency was not affected	
						(KL)4(KKL)2KGSC-NH2 [G1,2-KL]	higher efficiency than in Neuro2A cells				
0.123	33	0.566	45	129	366	(R)2KRHC-NH2 [RHCG1-R]				can transfect cells effectively	
						(LK)8(KLK)4(KLK)2KGSC-NH2 [G1,2,3-LK]	did not have a significant difference	did not have a significant difference			
						(KL)8(KKL)4(KKL)2KGSA-NH2 [Ala-G1,2,3-KL]	did not affect the transfection results	did not affect the transfection results			
						(KL)8(KKL)4(KKL)2KKLC-NH2 [G0,1,2,3-KL]	did not affect the transfection results	did not affect the transfection results			
0.155	41	0.109	46	117	206	(LR)4(KRL)2KRHC-NH2 [RHCG1-RL, 2-LR]				can transfect cells effectively	higher efficiency than the third generation dendrimer G1,2-RL, 3-LR
						(kl)8(kkl)4(kkl)2kgsc-NH2 [D-G1,2,3KL]	did not have any significant impact on transfection	did not have any significant impact on transfection			
0.107	40	0.577	35	129	326	(LR)2KRHC-NH2 [RHCG1-LR]				can transfect cells effectively	
0.146	37	0.452	51	133	105	(FR)8(KRQ)4(KRW)2KGSC-NH2 [G1-RW, 2-RQ, 3-FR]					
0.363	41	0.766		105	183	(RLR)2KRHC-NH2 [RHCG1-RLR]					
